Experiments:
lung ILC2s [1] = test: Gene expression analysis of ILC2s with NanoString nCounter technology; type: cell-based, mouse; settings: ILC2s from rm-IL-33 challenged mice with or without agonist
Excerpt: FIGS. 5A-5F: Cholinergic signal attenuates ILC2 proliferation and GATA3 expression. (FIG. 5A) Mean fluorescence intensity of Ki67 and percentage of Ki67+ cells in isolated lung ILC2s, stimulated with IL-33 in the absence and presence of α7nAChR. (FIG. 5B) Mean fluorescence intensity of GATA3 in isolated lung ILC2s, stimulated with IL-33 in the absence and presence of α7nAChR. One representative experiment of two is shown (n=5; Student's t test *, p<0.05; **, p<0.01; ***p<0.001). […] FACS-purified ILC2s from WT mice challenged with rm-IL-33 with or without α7nAChR agonist as described in FIG. 3A were quantified by NanoString nCounter technology. Data range from −1 to +1 for the most reduced and most increased gene expression, respectively. (FIG. 5D) Expression of NF-κB p65 in isolated lung ILC2s from mice challenged with IL-33 with (dotted line) or without (thick line) α7nAChR agonist. The level of isotype-matched stain control is shown as a gray-filled histogram. (FIG. 5E) Expression of phosphorylated IKKα/β (Ser176/180) in isolated lung ILC2s stimulated with IL-33, with (dotted line) or without (thick line) α7nAChR agonist for 24 hours. The level of isotype-matched stain control is shown as a gray-filled histogram. (FIG. 5F) Mean fluorescence intensity of phosphorylated IKKα/β with or without α7nAChR agonist.
Next, to investigate the molecular mechanism of α7nAChR agonist-mediated anti-inflammatory effects, Applicants analyzed the gene expression profile of ILC2s with or without α7nAChR agonist treatment by NanoString technology as described in the methods. […] Applicants further confirmed by flow cytometry that α7nAChR agonist reduced NF-κB p65 expression in ILC2s (FIG. 5D). To better establish the underlying mechanisms, Applicants explored the signaling pathway upstream of NF-κB by measuring the activated form of IKKα/β, which is phosphorylated on serine residues 176 and 180. Consistent with our previous results shown in FIG. 5D, α7nAChR agonist reduced phosphorylated IKKα/β expression in ILC2s (FIGS. 5E-5F). NF-κB and STAT-6 are both critical for GATA-3 transcription. The inhibition of GATA-3 expression results in a down-regulation of IL-5, IL-9 and IL-13 secretion from ILC2s.
The difference in the abundance of scripts between ILC2s purified from rm-IL33 administered mice with or without α7nAChR agonist were analyzed with NanoString nCounter technology. Heat plots were generated with R statistical software.

lung ILC2s [2] = test: In vitro stimulation of murine lung ILC2s, IL-5 and IL-13 by ELISA, viability by 7-AAD; type: cell-based, mouse
Description: FIGS. 2A-2C: α7nAChR agonist suppresses IL-5 and IL-13 production from ILC2s in vitro. BALB/cByJ mice were intranasally challenged with recombinant mouse IL-33 on days 1-3. On day 4 lung ILC2s were isolated and re-stimulated with rIL-33, rIL-2 and rIL-7 with or without α7nAChR agonist (2.5, 10 and 50 μg mL^−1) for 24 hours (FIG. 2A) or 48 hours (FIG. 2B). The levels of IL-5 and IL-13 were measured by ELISA. The viability of cultured ILC2s were assessed by staining with 7-AAD. (FIG. 2C) BALB/cByJ mice were intranasally challenged with recombinant mouse IL-33 on days 1-3, with or without α7nAChR agonist administration. On day 4 lung ILC2s were isolated and the number of IL-5^+ and IL-13^+ cells per 40×10^4 ILC2s were quantified. Values are expressed as the mean±SEM of five experiments (n=5; Student's t test *, p<0.05; **p<0.01).
FIG. 10: α7nAChR agonist suppresses cytokine production in ILC2s. Lung ILC2s were sorted from naïve BALB/cByJ mice and cultured with rm-IL-25 (10 ng mL−1) in the presence or absence of α7nAChR (10 μg mL−1) agonist for 24 hours. The levels of IL-5 and IL-13 were measured by ELISA. Data are representative of at least two independent experiments and are presented as means±SEM (n=4; Student's t test *, p<0.05).
Nicotine is known as a major constituent of cigarette smoke, which causes impairment of lung function and exacerbation of asthma. […] To address this question quantitatively, pulmonary ILC2s were isolated and cultured with increasing doses (2.5, 10 and 50 μg mL^−1) of α7nAChR agonist in the presence of rm-IL-33, rm-IL-2 and rm-IL-7. […] To verify that the actions of the agonist were not due to a reduction in the number of ILC2s, Applicants administered IL-33 to mice in vivo with or without agonist treatment, and then quantified the number of IL-5^+ and IL-13^+ ILC2s within a determined number of ILC2s (FIG. 2C). […]
Murine ILC2s were isolated from BALB/cByJ mice to >95% purity using the FACSARIA III cell sorter. […] Levels of cytokines were measured by ELISA (eBioscience), according to the manufacturer's instructions.

expression of STAT-5a, STAT-5b, and IL-2 receptors (IL-2/IL-7 signaling panel) (lung ILC2s [1]): relatively unaffected
SMILES: COc1ccc(/C=C2\CCCN=C2c2cccnc2)c(OC)c1 [GTS-21, 3-[(3E)-3-[(2,4-dimethoxyphenyl)methylidene]-5,6-dihydro-4H-pyridin-2-yl]pyridine]
RelA expression (lung ILC2s [1]): unaffected
expression at the mRNA level of NF-κB1 (lung ILC2s [1]): decrease
expression of GATA-3, STAT-6, NF-κB, IL-5, IL-9 and IL-13 (IL-33/IL-25 signaling pathway genes) (lung ILC2s [1]): inhibited
factors associated with apoptosis (Casp3, Casp8, Bcl-2) (lung ILC2s [1]): did not activate
viability of cultured ILC2s (7-AAD) (lung ILC2s [2]; agonist 2.5, 10 and 50 μg mL−1, 24 or 48 hours): independent of cell viability except at the highest tested dose
IL-25-induced cytokine secretion (IL-5 and IL-13) (lung ILC2s [2]; rm-IL-25 10 ng mL−1, agonist 10 μg mL−1, 24 hours): susceptible to suppression
IL-5 and IL-13 production from ILC2s (ELISA) (lung ILC2s [2]; rm-IL-33, rm-IL-2, rm-IL-7, agonist 2.5, 10 and 50 μg mL−1, 24 or 48 hours): dose-dependent anti-inflammatory effects
